Experimental data from patent publication US20260240923A1, “COMPOSITION COMPRISING BIFIDOBACTERIUM ANIMALIS SUBSP. LACTIS STRAIN AND 2’-FUCOSYLLACTOSE” (Chr. Hansen A/S, priority 2023, published 2026).

Tested on: human PBMCs
Test: Cytokine secretion from human PBMCs, homeostatic and Poly (I:C) challenged conditions (Example 6)
Assay type: cell-based
Settings: homeostatic (unchallenged) conditions, 20 hrs; bacteria grown on 2′FL; 2′FL 2%

In the case of 2′-Fucosyllactose [2′FL], the IFN-γ secretion is reported as “did not induce secretion” and the IL-10 secretion is reported as “did not induce secretion”.
